Experimental data taken from the supplement of paper PMC10307832.

Compound: CC1=C(C=CC(=C1)[N+](=O)[O-])NS(=O)(=O)C2=C(C=CC(=C2)Cl)Cl [FH535] + CC(=O)c1c(C)c2cnc(Nc3ccc(N4CCNCC4)cn3)nc2n(C2CCCC2)c1=O [Palbociclib] (partner 0.5 µM)
Experiment: relative viability (nuclei count vs DMSO), 5 days (fraction); higher = more cells survive
Procedure, shortened: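 For relative viability, nuclei counts in treated wells were divided by those in vehicle wells. Lung cancer cell lines had been pin-tool dosed in 1536-well plates the day after seeding and cultured for 5 days, then fixed and stained in one step (final 0.05% Triton X-100, 1% formaldehyde, 1 ug/ml Hoechst) and imaged at 4×. Doses were one drug alone or a fixed anchor-drug dose plus five library-drug doses (not always all listed) in √10 steps, and values are duplicate-plate medians.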

Cell Line	relative viability (first compound 0.04 µM)	relative viability (first compound 0.1265 µM)	relative viability (first compound 0.4 µM)	relative viability (first compound 1.265 µM)
EMC-BAC-2	0.546	0.507	0.526	0.512
NCI-H727	0.663	0.634	0.693	0.63
LU99A	0.35	0.436	0.432	0.342
LK-2	0.624	0.578	0.553	0.593
SW 900	0.516	0.503	0.507	0.454
NCI-H322M	0.489	0.481	0.524	0.511
NCI-H2405	0.5	0.504	0.492	0.354
HCC-827	0.501	0.479	0.489	0.332
NCI-H1666	0.674	0.639	0.614	0.631
SK-MES-1	0.305	0.301	0.312	0.263
201T	0.374	0.344	0.332	0.301
RERF-LC-KJ	0.992	1.05	0.957	0.846
NCI-H3122	0.169	0.218	0.195	0.187
LXF-289	0.597	0.618	0.559	0.497
EKVX	0.422	0.396	0.333	0.292
A-427	0.532	0.575	0.546	0.474
ChaGo-K-1	0.893	0.946	0.888	0.531
NCI-H1944	0.328	0.326	0.35	0.272
LCLC-97TM1	0.199	0.203	0.235	0.135
NCI-H358	0.121	0.129	0.129	0.134
NCI-H1993	0.651	0.661	0.592	0.415
NCI-H520	0.205	0.248	0.182	0.246
NCI-H1975	0.627	0.403	0.481	0.474
SK-LU-1	0.412	0.406	0.373	0.334

Cell Line	relative viability (first compound 0.04 µM)	relative viability (first compound 0.1265 µM)	relative viability (first compound 0.4 µM)	relative viability (first compound 1.265 µM)
NCI-H441	0.212	0.197	0.176	0.174
NCI-H1651	0.51	0.497	0.532	0.437
HARA	0.233	0.278	0.277	0.241
H3255	0.302	0.307	0.346	0.307
NCI-H460	0.175	0.253	0.244	0.117
CAL-12T	0.344	0.442	0.393	0.25
ABC-1	0.715	0.641	0.458	0.583
NCI-H1792	0.657	0.629	0.664	0.486
NCI-H1437	0.316	0.314	0.237	0.229
HOP-62	0.481	0.462	0.456	0.393
EPLC-272H	0.363	0.336	0.337	0.299
COR-L 105	0.335	0.386	0.43	0.359
HCC-366	0.418	0.412	0.37	0.296
HCC-44	1.02	0.889	0.914	0.79
NCI-H2009	0.243	0.174	0.229	0.215
NCI-H2347	0.456	0.342	0.416	0.397
NCI-H838	0.217	0.222	0.208	0.198
NCI-H1355	0.394	0.436	0.4	0.324
NCI-H2170	0.397	0.423	0.372	0.312
NCI-H2023	0.383	0.369	0.404	0.331
NCI-H1650	0.325	0.323	0.303	0.212
NCI-H1395	0.599	0.735	0.63	0.561
NCI-H2087	0.23	0.176	0.21	0.158
PC-14	0.512	0.6	0.593	0.548

Cell Line	relative viability (first compound 0.04 µM)	relative viability (first compound 0.1265 µM)	relative viability (first compound 0.4 µM)	relative viability (first compound 1.265 µM)
NCI-H1793	0.315	0.306	0.348	0.241
LC-2-ad	0.481	0.482	0.476	0.441
HCC-78	0.487	0.512	0.458	0.425
NCI-H2342	0.524	0.533	0.567	0.581
LOU-NH91	0.458	0.536	0.548	0.497
NCI-H1734	0.375	0.312	0.351	0.332
NCI-H23	0.453	0.552	0.477	0.471
NCI-H647	0.401	0.445	0.27	0.4
NCI-H1755	0.428	0.413	0.463	0.448
SW 1573	0.389	0.428	0.384	0.298
NCI-H650	0.282	0.35	0.332	0.266
UMC-11	0.346	0.361	0.311	0.325
HCC-15	0.651	0.781	0.639	0.523
NCI-H2126	0.352	0.329	0.363	0.322
NCI-H2085	0.507	0.45	0.448	0.365
NCI-H522	0.984	0.936	0.945	0.701
BEN	0.477	0.455	0.489	0.431
NCI-H661	0.387	0.399	0.394	0.32
LCLC-103H	0.509	0.426	0.493	0.416
PC-3 [JPC-3]	0.494	0.548	0.529	0.548
NCI-H2228	0.734	0.548	0.745	0.788
COR-L23	0.3	0.327	0.263	0.256
NCI-H1915	0.537	0.501	0.469	0.45
